One assay has as its target T1, Human CD73 (Homo sapiens, UniProt P21589).
T1 construct: purchased R&D Systems; host or cells: CHO cells
T1 sequence (P21589 27-549): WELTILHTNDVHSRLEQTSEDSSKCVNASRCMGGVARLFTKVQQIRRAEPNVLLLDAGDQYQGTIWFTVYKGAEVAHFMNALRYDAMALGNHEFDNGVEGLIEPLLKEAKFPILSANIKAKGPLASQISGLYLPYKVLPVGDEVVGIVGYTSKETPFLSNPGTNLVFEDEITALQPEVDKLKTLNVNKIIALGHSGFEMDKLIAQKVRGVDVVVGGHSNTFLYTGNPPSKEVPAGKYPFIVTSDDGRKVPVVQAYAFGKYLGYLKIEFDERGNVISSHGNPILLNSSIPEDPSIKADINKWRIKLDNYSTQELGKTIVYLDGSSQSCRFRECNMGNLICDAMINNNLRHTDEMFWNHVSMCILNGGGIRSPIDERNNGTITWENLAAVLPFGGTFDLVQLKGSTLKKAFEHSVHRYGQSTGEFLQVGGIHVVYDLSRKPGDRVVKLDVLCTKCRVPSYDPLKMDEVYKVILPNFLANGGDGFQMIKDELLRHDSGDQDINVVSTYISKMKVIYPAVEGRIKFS
The assay can be described thus: CD73 Enzyme Assay. The assay is classed as biochemical. Conditions: 0.25 nM hCD73, 25 μM AMP, kinetic read at 360 nm; read-out: CD73 Enzyme Assay IC50.

In assay [1] the target is T2, CD73 on U138 human neuroglioma cells (Homo sapiens, UniProt P21589).
T2 construct: U138 cells were obtained from ATCC and cultured in DMEM with 10% FBS; host or cells: U138 human neuroglioma cells
T2 sequence (P21589 27-549): T1 sequence (P21589 27-549)
The assay can be described thus: CD73 Cell-Based Assay. The settings on record: U138 cells, AMP substrate, 2 hours at 37° C., inorganic phosphate by malachite green. A digest of the protocol:
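Whole U138 cells washed free of phosphate were incubated with 200 μM AMP (mixture concentration before equal-volume addition) plus compound in HEPES-buffered saline, pH 7.4, for 2 h at 37 °C, 5% CO2. Adenosine-forming activity read as inorganic phosphate released into supernatant by malachite green.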

Drawing on patent US11591355B2 (Peloton Therapeutics, Inc., priority 2017, dated 2023), this text covers IC50 for 17 molecules.

pIC50: −log10 of the molar value. A value given as a limit tells only on which side of the number the result lay.

For orientation: pIC50 means the negative decadic logarithm of the IC50, by convention in mol/L.

In the case of `N#Cc1nc(NC2CCOCC2)c2ccn([C@@H]3O[C@H](COCP(=O)(O)O)[C@@H](O)[C@H]3O)c2n1` [Compound 120, [(2R,3S,4R,5R)-5-[2-cyano-4-(tetrahydro-pyran-4-ylamino)-pyrrolo[2,3-d]-pyrimidin-7-yl]-3,4-dihydroxy-tetrahydro-furan-2-yl]methoxy-methylphosphonic acid], the pIC50 at Human CD73 is 6.00 to 7.00; in assay [1], 7.00 to 8.00.
Take `N#Cc1nc(NC2CCC2)c2ccn([C@@H]3O[C@H](COCP(=O)(O)O)[C@@H](O)[C@H]3O)c2n1` [Compound 110, [(2R,3S,4R,5R)-5-[2-cyano-4-(cyclobutyl-amino)pyrrolo[2,3-d]-pyrimidin-7-yl]-3,4-dihydroxy-tetrahydro-furan-2-yl]methoxy-methylphosphonic acid]: the pIC50 (on Human CD73; in assay [1]) was greater than 8.00 each time.
For the molecule `C[C@@H](Nc1nc(Cl)nc2c1ccn2[C@@H]1O[C@H](COCP(=O)(O)O)[C@@H](O)[C@H]1O)c1ccc(F)cc1` [Compound 69, [(2R,3S,4R,5R)-5-[2-chloro-4-[[(1R)-1-(4-fluorophenyl)ethyl]-amino]pyrrolo[2,3-d]-pyrimidin-7-yl]-3,4-dihydroxy-tetrahydro-furan-2-yl]methoxy-methylphosphonic acid], the pIC50 (at Human CD73; in assay [1]) was greater than 8.00 throughout.
Consider `O=P(O)(O)COC[C@H]1O[C@@H](n2ncc3c(N4CC5CC5C4)nc(Cl)nc32)[C@H](O)[C@@H]1O` (stereo partly drawn) [Compound 280, [(2R,3S,4R,5R)-5-[4-(3-azabicyclo[3.1.0]-hexan-3-yl)-6-chloro-pyrazolo[3,4-d]-pyrimidin-1-yl]-3,4-dihydroxy-tetrahydro-furan-2-yl]methoxy-methylphosphonic acid], for which the pIC50 (at Human CD73; in assay [1]) was greater than 8.00 throughout.
For `C[C@@H](Nc1nc(C#N)nc2c1ccn2[C@@H]1O[C@H](COCP(=O)(O)O)[C@@H](O)[C@H]1O)c1ccccc1F` [Compound 88, [(2R,3S,4R,5R)-5-[2-cyano-4-[[(1R)-1-(2-fluorophenyl)ethyl]-amino]pyrrolo[2,3-d]-pyrimidin-7-yl]-3,4-dihydroxy-tetrahydro-furan-2-yl]methoxy-methylphosphonic acid], the pIC50 (at Human CD73; in assay [1]) was greater than 8.00 each time.
With `O=P(O)(O)COC[C@H]1O[C@@H](n2ccc3c(NC4CCCC4)nc(Cl)nc32)[C@H](O)[C@@H]1O` [Compound 70, [(2R,3S,4R,5R)-5-[2-chloro-4-(cyclopentylamino)pyrrolo[2,3-d]pyrimidin-7-yl]-3,4-dihydroxy-tetrahydrofuran-2-yl]methoxymethylphosphonic acid], the pIC50 (at Human CD73; in assay [1]) was greater than 8.00 throughout.
Turning to `O=P(O)(O)COC[C@H]1O[C@@H](n2ccc3c(NC4CCCC4)nc(O)nc32)[C@H](O)[C@@H]1O` [Compound 250, [(2R,3S,4R,5R)-5-[4-(cyclopentylamino)-2-hydroxy-pyrrolo[2,3-d]pyrimidin-7-yl]-3,4-dihydroxy-tetrahydro-furan-2-yl]methoxy-methylphosphonic acid], the negative-log IC50 (pIC50) (on Human CD73; in assay [1]) was 7.00 to 8.00 in each case.
For `Cc1cc2c(NC3CCCC3)nc(Cl)nc2n1[C@@H]1O[C@H](COCP(=O)(O)O)[C@@H](O)[C@H]1O` [Compound 200, [(2R,3S,4R,5R)-5-[2-chloro-4-(cyclopentyl-amino)-6-methyl-pyrrolo[2,3-d]-pyrimidin-7-yl]-3,4-dihydroxy-tetrahydro-furan-2-yl]methoxy-methylphosphonic acid], the pIC50 (at Human CD73; in assay [1]) was 7.00 to 8.00 throughout.
Turning to `O=P(O)(O)COC[C@H]1O[C@@H](c2c(Br)sc3c(N4CC5CCCC5C4)nc(Cl)nc23)[C@H](O)[C@@H]1O` (stereo partly drawn) [Compound 297, [(2R,3S,4R,5S)-5-[4-(3,3a,4,5,6,6a-hexa-hydro-1H-cyclopenta-[c]pyrrol-2-yl)-6-bromo-2-chloro-thieno[3,2-d]-pyrimidin-7-yl]-3,4-dihydroxy-tetrahydro-furan-2-yl]methoxy-methylphosphonic acid], the pIC50 (on Human CD73; in assay [1]) was 6.00 to 7.00 each time.
As for `O=P(O)(O)COC[C@H]1O[C@@H](n2ncc3c(N4CC5CCCC5C4)nc(Cl)nc32)[C@H](O)[C@@H]1O` (stereo partly drawn) [Compound 274, [(2R,3S,4R,5R)-5-[4-(3,3a,4,5,6,6a-hexa-hydro-1H-cyclopenta-[c]pyrrol-2-yl)-6-chloro-pyrazolo[3,4-d]-pyrimidin-1-yl]-3,4-dihydroxy-tetrahydro-furan-2-yl]methoxy-methylphosphonic acid], the pIC50 (on Human CD73; in assay [1]) was greater than 8.00 each time.
In the case of `Nc1nc(Cl)nc2c1ccn2[C@@H]1O[C@H](COCP(=O)(O)O)[C@@H](O)[C@H]1O` [Compound 86, [(2R,3S,4R,5R)-5-(4-amino-2-chloro-pyrrolo[2,3-d]-pyrimidin-7-yl)-3,4-dihydroxy-tetrahydro-furan-2-yl]methoxy-methylphosphonic acid], the negative logarithm of the IC50 (pIC50) (on Human CD73; in assay [1]) was 6.00 to 7.00 each time.
Take `O=P(O)(O)COC[C@H]1O[C@@H](n2cnc3c(OC4CCCC4)ncnc32)[C@H](O)[C@@H]1O` [Compound 55, [(2R,3S,4R,5R)-5-[6-(cyclopentoxy)purin-9-yl]-3,4-dihydroxy-tetrahydrofuran-2-yl]-methoxymethylphos-phonic acid]: the pIC50 on Human CD73 was 6.00 to 7.00; in assay [1], less than 6.00.
The matching figures for `O=P(O)(O)CS(=O)(=O)C[C@H]1O[C@@H](n2ccc3c(NC4CCCC4)nc(C(F)F)nc32)[C@H](O)[C@@H]1O` [Compound 289, [(2S,3S,4R,5R)-5-[4-(cyclopentylamino)-2-(difluoromethyl)-pyrrolo[2,3-d]-pyrimidin-7-yl]-3,4-dihydroxy-tetrahydro-furan-2-yl]methyl-sulfonylmethylphos-phonic acid]: greater than 8.00 and greater than 8.00.
For `O=P(O)(O)COC[C@H]1O[C@@H](c2csc3c(NC4CCCC4)nc(Cl)nc23)[C@H](O)[C@@H]1O` [Compound 305, [(2R,3S,4R,5S)-5-[2-chloro-4-(cyclopentyl-amino)thieno[3,2-d]-pyrimidin-7-yl]-3,4-dihydroxy-tetrahydro-furan-2-yl]methoxy-methylphosphonic acid], the pIC50 (on Human CD73; in assay [1]) was 7.00 to 8.00 each time.
Turning to `O=P(O)(O)COC[C@H]1O[C@@H](n2cnc3c(NC4CCc5ccccc54)ncnc32)[C@H](O)[C@@H]1O` (stereo partly shown) [Compound 52], the pIC50 (on Human CD73; in assay [1]) was 6.00 to 7.00 each time.
For the molecule `CC(C)C#Cc1nc(NC2CCCC2)c2ccn([C@@H]3O[C@H](COCP(=O)(O)O)[C@@H](O)[C@H]3O)c2n1` [Compound 253, [(2R,3S,4R,5R)-5-[4-(cyclopentylamino)-2-(3-methylbut-1-ynyl)pyrrolo[2,3-d]-pyrimidin-7-yl]-3,4-dihydroxy-tetrahydro-furan-2-yl]methoxy-methylphosphonic acid], the pIC50 (at Human CD73; in assay [1]) was greater than 8.00 each time.
Turning to `C[C@H](Nc1nc(C#N)nc2c1ccn2[C@@H]1O[C@H](COCP(=O)(O)O)[C@@H](O)[C@H]1O)c1ccc(F)cc1` [Compound 72, [(2R,3S,4R,5R)-5-[2-cyano-4-[[(1S)-1-(4-fluorophenyl)ethyl]-amino]pyrrolo[2,3-d]-pyrimidin-7-yl]-3,4-dihydroxy-tetrahydro-furan-2-yl]methoxy-methylphosphonic acid], the pIC50 (on Human CD73; in assay [1]) was greater than 8.00 throughout.
